Where two headings read alike, the source gives them in different places.

For one data set, the target named is zebrafish Mate4 (Danio rerio, UniProt U3Q0C3). The experiment in a line: DAPI inhibition assay, Mate4. The class given is cell-based. Here is the method:
(§1) HEK293T cells were transiently transfected as described previously[31] using the PEI (polyethyleneimine) reagent in 48-well plates. Cells were in parallel transfected with pcDNA3.1/His/LacZ plasmid and transfection efficiency was evaluated 24 h after transfection with the LacZ staining protocol.
(§2) HEK293T cells overexpressing respective single zebrafish Mate transporter were used for further experiments. […] DAPI fluorescence was measured at 360 and 460 nm […], respectively. The uptake into vector-transfected HEK293T cells (mock cells) was subtracted to obtain transporter-specific uptake.
(§3) Inhibition assays using DAPI as a fluorescent substrate were performed in the same transport medium. […] Compounds tested for interaction were checked using at least four concentrations but only a representative concentration (with the highest response or the largest concentration in solubility range) is shown.
(§4) For the purpose of IC50 calculations, data were fitted to the sigmoidal four-parameter dose-response model (variable slope),

The next data set deals with zebrafish Mate7 (Danio rerio, UniProt U3PTD6). As to the kind of experiment: DAPI inhibition assay, Mate7. It is filed as cell-based. To be noted: for interaction strength: class by IC50 of DAPI uptake inhibition. The procedure:
as §1, §2, §3, §4

A further data set relates to human MATE1. The note with it: cited from earlier work.
A further data set deals with T1, zebrafish Mate3 (Danio rerio, UniProt A1L1P9).
T1 sequence (A1L1P9 1-590): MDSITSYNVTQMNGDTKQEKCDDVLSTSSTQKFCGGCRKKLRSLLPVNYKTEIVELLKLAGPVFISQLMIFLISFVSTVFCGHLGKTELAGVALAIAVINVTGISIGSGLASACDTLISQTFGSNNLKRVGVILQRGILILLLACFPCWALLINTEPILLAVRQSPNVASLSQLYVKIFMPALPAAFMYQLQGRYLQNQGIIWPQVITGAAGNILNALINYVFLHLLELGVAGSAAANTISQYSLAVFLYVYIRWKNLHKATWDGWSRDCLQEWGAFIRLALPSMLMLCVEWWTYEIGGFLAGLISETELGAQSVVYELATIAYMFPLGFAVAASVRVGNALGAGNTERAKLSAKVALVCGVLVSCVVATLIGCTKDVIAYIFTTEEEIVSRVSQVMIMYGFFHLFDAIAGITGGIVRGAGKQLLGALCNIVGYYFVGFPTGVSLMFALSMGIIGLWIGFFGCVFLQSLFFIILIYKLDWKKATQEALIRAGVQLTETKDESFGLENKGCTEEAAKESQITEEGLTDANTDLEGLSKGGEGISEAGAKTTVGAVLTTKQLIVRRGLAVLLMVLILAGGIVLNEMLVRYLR
As to the kind of experiment: DAPI inhibition assay, Mate3. The note with it: Mate3; inhibition of DAPI (2.5 μM) uptake; n = 3; NE = no effect in the compound solubility range; read-out: IC50. Also noted: expressed in transfected cells; host or cells: HEK293T. The class given is cell-based. Here is the method: as §1, §2, §3, §4

For another data set, the target named is zebrafish Mate8 (Danio rerio, UniProt A0A8M6YZ09). The experiment in a line: DAPI inhibition assay, Mate8. The class given is cell-based. To be noted: for interaction strength: class by IC50 of DAPI uptake inhibition. The procedure:
as §1, §2, §3, §4

The target in the next data set is zebrafish Mate6 (Danio rerio, UniProt A1L2E7). As to the kind of experiment: DAPI inhibition assay, Mate6. It is filed as cell-based. Here is the method: as §1, §2, §3, §4
Another data set has as its system rat Mate1. To be noted: rat Mate1 ref 3; cited from earlier work.
The subject of a further data set is human MATE2. The note with it: human MATE2 ref 40; cited from earlier work.

zebrafish Mate8, sequence (A0A8M6YZ09 entry or part of it): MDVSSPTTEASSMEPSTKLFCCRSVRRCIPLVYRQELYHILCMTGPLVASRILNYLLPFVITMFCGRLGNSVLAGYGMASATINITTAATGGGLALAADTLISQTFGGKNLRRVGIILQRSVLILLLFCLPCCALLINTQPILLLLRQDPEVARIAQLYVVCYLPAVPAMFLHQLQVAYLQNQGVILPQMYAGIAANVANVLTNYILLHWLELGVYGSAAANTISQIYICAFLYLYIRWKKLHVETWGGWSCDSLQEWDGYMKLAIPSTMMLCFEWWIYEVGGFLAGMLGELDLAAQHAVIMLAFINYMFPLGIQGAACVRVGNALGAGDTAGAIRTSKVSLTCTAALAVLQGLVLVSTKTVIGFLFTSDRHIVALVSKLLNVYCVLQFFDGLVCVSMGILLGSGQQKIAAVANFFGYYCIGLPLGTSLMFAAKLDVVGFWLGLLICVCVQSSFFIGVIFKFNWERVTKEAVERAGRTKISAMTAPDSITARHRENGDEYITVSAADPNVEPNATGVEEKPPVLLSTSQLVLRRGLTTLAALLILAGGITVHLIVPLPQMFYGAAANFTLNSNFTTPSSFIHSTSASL
zebrafish Mate4, sequence (U3Q0C3 entry or part of it): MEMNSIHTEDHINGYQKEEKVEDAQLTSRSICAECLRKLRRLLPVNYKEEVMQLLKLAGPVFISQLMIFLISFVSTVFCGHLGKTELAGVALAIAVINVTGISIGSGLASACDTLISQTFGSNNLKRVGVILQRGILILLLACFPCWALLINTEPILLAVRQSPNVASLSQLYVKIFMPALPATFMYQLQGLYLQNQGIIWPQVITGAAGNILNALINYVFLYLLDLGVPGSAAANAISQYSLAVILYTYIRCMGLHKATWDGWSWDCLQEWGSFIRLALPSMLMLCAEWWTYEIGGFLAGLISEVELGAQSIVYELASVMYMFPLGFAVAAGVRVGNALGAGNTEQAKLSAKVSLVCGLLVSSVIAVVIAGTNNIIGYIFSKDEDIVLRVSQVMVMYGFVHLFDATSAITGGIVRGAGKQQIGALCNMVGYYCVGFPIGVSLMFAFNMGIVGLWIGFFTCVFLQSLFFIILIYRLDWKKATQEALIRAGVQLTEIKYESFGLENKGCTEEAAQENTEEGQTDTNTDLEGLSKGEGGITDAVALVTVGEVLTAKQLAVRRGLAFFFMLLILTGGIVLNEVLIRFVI
zebrafish Mate6, sequence (A1L2E7 entry or part of it): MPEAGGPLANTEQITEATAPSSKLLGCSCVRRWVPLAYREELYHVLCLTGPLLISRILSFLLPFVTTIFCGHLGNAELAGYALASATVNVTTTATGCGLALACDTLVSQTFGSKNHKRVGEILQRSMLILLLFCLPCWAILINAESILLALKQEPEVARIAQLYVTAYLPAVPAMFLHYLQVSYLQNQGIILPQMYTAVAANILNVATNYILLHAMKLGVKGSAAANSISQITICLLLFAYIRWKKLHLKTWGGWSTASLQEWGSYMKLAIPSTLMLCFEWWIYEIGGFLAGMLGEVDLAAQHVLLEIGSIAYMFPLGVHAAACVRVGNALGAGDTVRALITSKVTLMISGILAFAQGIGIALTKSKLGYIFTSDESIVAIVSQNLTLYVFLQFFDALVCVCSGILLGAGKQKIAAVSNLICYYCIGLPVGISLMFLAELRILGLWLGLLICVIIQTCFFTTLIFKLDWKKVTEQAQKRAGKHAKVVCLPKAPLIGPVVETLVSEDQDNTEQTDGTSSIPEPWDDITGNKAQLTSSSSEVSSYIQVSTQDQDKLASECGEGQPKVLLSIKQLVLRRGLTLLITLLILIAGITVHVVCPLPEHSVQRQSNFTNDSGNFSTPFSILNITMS
zebrafish Mate7, sequence (U3PTD6 entry or part of it): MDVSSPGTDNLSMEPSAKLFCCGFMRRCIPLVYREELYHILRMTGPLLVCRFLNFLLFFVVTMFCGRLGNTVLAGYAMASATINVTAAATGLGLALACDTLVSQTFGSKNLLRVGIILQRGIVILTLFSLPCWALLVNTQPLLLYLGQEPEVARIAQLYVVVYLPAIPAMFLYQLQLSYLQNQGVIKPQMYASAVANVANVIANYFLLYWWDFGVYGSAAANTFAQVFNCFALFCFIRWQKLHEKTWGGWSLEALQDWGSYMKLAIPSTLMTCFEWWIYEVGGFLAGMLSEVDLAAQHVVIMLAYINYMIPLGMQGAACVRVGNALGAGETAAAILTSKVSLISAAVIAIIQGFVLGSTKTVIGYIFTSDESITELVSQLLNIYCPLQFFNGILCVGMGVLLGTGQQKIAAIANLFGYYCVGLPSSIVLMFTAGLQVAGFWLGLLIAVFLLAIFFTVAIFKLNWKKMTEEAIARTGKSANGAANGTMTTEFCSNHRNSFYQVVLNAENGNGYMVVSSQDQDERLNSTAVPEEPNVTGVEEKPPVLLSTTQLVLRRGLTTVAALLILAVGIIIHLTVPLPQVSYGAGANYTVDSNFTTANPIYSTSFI

On to `C[n+]1ccc(-c2ccccc2)cc1` [MPP^+, 1-methyl-4-phenylpyridinium, reference compound], for which the IC50 (commonly the midpoint of a concentration-inhibition curve) was found to be 434 µM on zebrafish Mate4 (Mate4, inhibition of DAPI (1 μM) uptake, n = 3, NE = no effect in the compound solubility range, read-out: IC50); 93.6 µM at zebrafish Mate7 (Mate7, inhibition of DAPI (2.5 μM) uptake, n = 3, NE = no effect in the compound solubility range, read-out: IC50); 2430 µM at zebrafish Mate3; 978 µM on zebrafish Mate8 (Mate8, inhibition of DAPI (1 μM) uptake, n = 3, NE = no effect in the compound solubility range, read-out: IC50); 27.9 µM at zebrafish Mate6 (Mate6, inhibition of DAPI (1 μM) uptake, n = 3, NE = no effect in the compound solubility range, read-out: IC50). For the same compound, the Km (usually the concentration of substrate that gives half-maximal velocity) with human MATE1 (human MATE1 ref 18) was 100 µM. The interaction strength result on zebrafish Mate8 (Mate8) was “weak (IC50 of 100–999 μM was classified as weak interaction)”.
For `CN/C(=N/CCSCc1nc[nH]c1C)NC#N` [Cimetidine, cimetidine, reference compound], in the data set on rat Mate1, the Km was 3 µM. The IC50 at zebrafish Mate4 stood at 134 µM; on zebrafish Mate7, 573 µM; on zebrafish Mate8 it was 4.5 µM; on zebrafish Mate6, 357 µM. Moreover, the interaction strength entry on zebrafish Mate7 (Mate7) is on record as “weak (IC50 of 100–999 μM was classified as weak interaction)”; on zebrafish Mate8 (Mate8) it was “strong (Compounds with IC50 of 1–29 μM were designated as strong interactors)”.
For the compound `Cc1ncc(C[n+]2csc(CCO)c2C)c(N)n1` [Thiamine, thiamine], the IC50 on zebrafish Mate4 (read-out: IC50) was found to be 805 µM; at zebrafish Mate7 (read-out: IC50) it was 935 µM; at zebrafish Mate8 (read-out: IC50), 1900 µM; at zebrafish Mate6 (read-out: IC50), 724 µM. For the same compound, the interaction strength result on zebrafish Mate7 (Mate7) is “weak (IC50 of 100–999 μM was classified as weak interaction)”; on zebrafish Mate8 (Mate8), “very weak (substances with IC50 above 1000 μM were considered very weak interactors)”. The results for the Km in the data set on human MATE2 and in the data set with human MATE1 (human MATE1 ref 40) were 3.9 µM and 3.5 µM, respectively.

The record behind these values is PMC4928094, “The first characterization of multidrug and toxin extrusion (MATE/SLC47) proteins in zebrafish (Danio rerio)” (Scientific Reports, 2016).
